In patent US20190031613A1, “COMPOUNDS AND METHODS FOR THEIR USE IN THE TREATMENT OF MALARIA” (University of South Florida, priority 2016, published 2019):
≈ marks a conversion by molar mass, not a printed value. Where two headings read alike, the source gives them in different places. Blank lines part the entries; values can stand above or below the molecule they belong to.

Experiments:
P. berghei-GFP parasites = assay: in vivo efficacy, modified Thompson test; parameters: species or system mice; settings: 0.5% aqueous HEC
Protocol: Prodrug 6d was orally tested for in vivo efficacy at four doses (0.3 mg/kg, 1.0 mg/kg, 3.0 mg/kg, and 10 mg/kg) in 0.5% aqueous HEC solution.

[1] = in vivo pharmacokinetics in mice (plasma, LC/MS-MS)
Protocol: Plasma exposure of prodrug 6e and parent compound 1b was determined following a single oral administration at 10 mg/kg and 3 mg/kg doses in 0.5% aqueous HEC (FIG. 5b).
Compounds 1b and its prodrug 6e were administered as a single dose (10 mg/kg) in 0.5% HEC using freshly prepared solution. Parent compound 1d and its prodrugs 6c and 6d were administered as a single dose of 50 mg/kg using the same vehicle. The blood was collected in prepared 5 ml syringe containing heparin via cardiac puncture and put into 15 mL conical tube on ice. Five mice were used per one time point at 0.5 h, 1 h, 2 h, 4 h, 8 h and 24 h […] plus 2 mice as a control (not-treated). The blood was then centrifuged for 5 min at 4000 rpm and plasma supernatant collected while avoiding the whole blood pellet at the bottom of the tube. The plasma was stored at −80° C. until the day of LC/MS-MS analysis.
Compound concentrations were quantitated in plasma samples by LC/MS-MS using an Agilent triple quadrupole instrument. Chromatographic separation was conducted using an Agilent HPLC with Phenomenex Kinetex C18 column (2.6 μm particle size, 50-4.6 mm i.d.) equipped with a Phenomenex Security Guard column. The mobile phase (1.25 mL/min) consisted of 0.05% formic acid in water and 0.05% formic acid in acetonitrile mixed using a linear gradient over 7 minutes. […] Plasma samples and calibration standards were prepared by protein precipitation with acetonitrile (3 parts acetonitrile to 1 part plasma), followed by centrifugation and analysis of the supernatant. Sample concentrations were determined by comparison to calibration standards prepared in blank plasma and assayed using the same conditions. The analytical lower limit of quantitation in plasma was typically 0.75-1.00 nM and accuracy, precision and recovery were within acceptable limits.
The plasma was first warmed up on ice for about 1 hour. Then 50 μL of plasma sample was precipitated with 150 μL of cold acetonitrile with internal standard (133 nM) P4Q-95^20) following by centrifugation at 4,000 rpm for 5 min at 4° C. and transfer˜150 μL of the supernatant to LCMS vial. The samples were analyzed using Agilent triple quadruple instrument in triplicates (5 mice×3 injections for each time point). The chemical structure of P4Q-95^20 is shown below:
The calibration curve for 1d was linear in 1 to 500 nM range so samples were diluted if needed to fit this linearity and then concentration recalculated accordingly. Calibration curve was run each time following the actual PK measurements and used for that particular compound.

[2] = aqueous solubility at pH 7.4; settings: pH 7.4, aqueous buffer
[3] = tested on: multidrug resistant malarial strain W2 (pyrimethamine and chloroquine resistant); assay: in vitro antimalarial activity against strain W2; assay type: cell-based; settings: strains W2 and TM90-C2B, strain not specified
Excerpt: FIG. 2a depicts the synthesis of 4(1H)-quinolones 1 via Conrad-Limpach reaction^24 and conversion to first set of prodrugs (2, 3 and 4) via O-acylation.
FIG. 4a depicts the synthesis of 4(1H)-quinolones 1 into amino AOCOM ether prodrugs 6 via O-alkylation and subsequent deprotection.

[4] = single PO dose 10 mg/kg on day 3 PI
[5] = oral dose 3.0 mg/kg, 0.5% aqueous HEC
[6] = oral dose 100 mg/kg, 0.5% aqueous HEC
[7] = 10 mg/kg PO, three daily doses days 3-5 PI
[8] = 10 mg/kg PO, three daily doses days 3-5 PI, untreated 13
[9] = 50 mg/kg PO, three daily doses days 3-5 PI
[10] = aqueous medium at pH 7.4 (buffer not named)

Structure (SMILES): COc1cc2[nH]c(C)c(-c3ccc(Oc4ccc(OC(F)(F)F)cc4)cc3F)c(=O)c2cc1Cl [1b, 6-chloro-3-(2-fluoro-4-(4-(tfifluoromethoxy)phenoxy)phenyl)-7-methoxy-2-methyl-4(1H)-quinolone, reference compound]
Day of death (avg) (P. berghei-GFP parasites; [4]): 13
Suppression [%] day 6 PI (P. berghei-GFP parasites; [4]): <1%
in vivo activity (P. berghei-GFP parasites; single dose of 10 mg/kg PO): completely inactive
AUC0→24 [1, 5]: 228 µmol·min/L
CL [1, 5]: 26.6 mL·kg/min
Vd [1, 5]: 19.6 L/kg
t1/2 apparent [1, 5]: 8.5 h
tmax [1, 5]: 4 h
AUC0→24 [1, 6]: 580 µmol·min/L
CL [1, 6]: 34.9 mL·kg/min
Vd [1, 6]: 44 L/kg
t1/2 apparent [1, 6]: 14.5 h
tmax [1, 6]: 8 h
Cmax ([1]; read-out: Cmax [μmol/L], oral dose 3.0 mg/kg, 0.5% aqueous HEC, parent in plasma): 0.31 µmol/L
Cmax ([1]; read-out: Cmax [μmol/L], oral dose 100 mg/kg, 0.5% aqueous HEC): 0.46 µmol/L
Cmax ([1]; single oral 3 mg/kg, 0.5% aqueous HEC): 0.31 µmol/L

Structure (SMILES): COc1cc2[nH]c(C)c(-c3ccccc3C)c(=O)c2cc1Cl [1c, 6-chloro-7-methoxy-2-methyl-3-(o-tolyl)-4(1H)-quinolone, reference compound]
Suppression [%] day 6 PI (P. berghei-GFP parasites; [7]): 29%
Day of death (avg) (P. berghei-GFP parasites; [8]): 13
Day of death (avg) (P. berghei-GFP parasites; [9]): 13
Suppression [%] day 6 PI (P. berghei-GFP parasites; [9]): 28%
solubility [2, 10]: 8.7 µM (≈ 2.73 µg/mL)

Structure (SMILES): COc1cc2[nH]c(C)c(-c3ccc(C(F)(F)F)cc3)c(=O)c2cc1Cl [1d, 6-chloro-7-methoxy-2-methyl-3-(4-(trifluoromethyl)phenyl)-4(1H)-quinolone, reference compound]
Suppression [%] day 6 PI (P. berghei-GFP parasites; [7]): 11%
Day of death (avg) (P. berghei-GFP parasites; [8]): 14
Day of death (avg) (P. berghei-GFP parasites; [9]): 13
Suppression [%] day 6 PI (P. berghei-GFP parasites; [9]): 10%
AUC0→24 ([1]; mouse, in vivo, po, 50 mg/kg): 222 µmol·min/L
CL ([1]; mouse, in vivo, po, 50 mg/kg): 609.7 mL·kg/min
Cmax ([1]; mouse, in vivo, po, 50 mg/kg): 0.36 µmol/L
Vd ([1]; mouse, in vivo, po, 50 mg/kg): 377.7 L/kg
maximum plasma concentration of 1d ([1]; mouse, in vivo, po, 50 mg/kg): 365 nM
t1/2 apparent ([1]; mouse, in vivo, po, 50 mg/kg): 7.15 h
time of maximum plasma concentration ([1]; mouse, in vivo, po, 50 mg/kg): 2 h
tmax ([1]; mouse, in vivo, po, 50 mg/kg): 2 h

Structure (SMILES): CCN(CC)C(=O)Oc1c(-c2ccccc2C)c(C)nc2cc(OC)c(Cl)cc12 [2a]
EC50 values fold higher than reference 4(1H)-quinolone 1c [3]: 300 fold
in vitro antimalarial activity / EC50 values relative to 1c [3]: lacked in antimalarial activity
solubility [2]: < 1 µM

EC50 values fold higher than reference 4(1H)-quinolone 1c [3]: 300 fold
in vitro antimalarial activity / EC50 values relative to 1c [3]: lacked in antimalarial activity
solubility [2, 10]: 2.9 µM (≈ 1.19 µg/mL)
Structure (SMILES): COc1cc2nc(C)c(-c3ccccc3C)c(OC(=O)N3CCCC3)c2cc1Cl [2b, 6-Chloro-7-methoxy-2-methyl-3-(o-tolyl)-4-((pyrrolidine-1-carbonyl)oxy)quinoline]

Structure (SMILES): CNCCOC(=O)OCOc1c(-c2ccccc2C)c(C)nc2cc(OC)c(Cl)cc12.Cl [6a, 6-Chloro-7-methoxy-2-methyl-3-(o-tolyl)-4-(((2-(methylammonio)ethoxycarbonyl)oxy)methoxy)quinoline, chloride salt]
Suppression [%] day 6 PI (P. berghei-GFP parasites; [7]): 71%
Day of death (avg) (P. berghei-GFP parasites; [8]): 16
Day of death (avg) (P. berghei-GFP parasites; [9]): 13
Suppression [%] day 6 PI (P. berghei-GFP parasites; [9]): 46%
